The subject of one data set is MV4-11 AML cells. Description: Survival of MV4-11 engrafted NSG mice. The settings on record: liposomal formulation, 1 mg/kg twice a week. The format is in vivo. The procedure:
The therapeutic activity of BTZ-MEGA-CHOL was also investigated using animal studies. NSG mice were injected with 5×10^5 MV4-11 AML cells. The mice were divided into two groups of 10 each (Trial I), and were treated with empty liposomes or the liposomal formulation of BTZ-MEGA-CHOL at 1 mg/kg, twice a week, by tail vein injection. The study was repeated once with 5 mice in each group (Trial II). Three mice from each group were sacrificed after 4 weeks of treatment in Trial I for further analysis.
For Trial I, the p value was 0.0007 (FIG. 9). For Trial II the p value was 0.0019 (FIG. 10). When the data set was viewed as a combination, the p value was <0.0001 and median survival of the mice was 28 days for the empty liposome treated (control) group and 39 days for the BTZ-MEGA-CHOL treated group (FIG. 11).

Data set [1] is described as follows: Encapsulation (drug entrapment / loading) efficiency of liposomes, Sepharose CL-4B fractions, UV-vis OD 270 nm. The format is physicochemical. The note with it: liposomal formulation; drug in liposome fractions / total drug fractions. The method, then: The liposome particle size distribution is determined through dynamic light scattering on a NICOMP Submicron Particle Sizer Model 370. The encapsulation efficiency was examined by a UV-visible spectrophotometer as the OD at 270 nm after 1:9 methanol extraction of fractions from the Sepharose CL-4B column (FIG. 1). A reference measurement was also taken of the OD at 450 nm without methanol extraction (FIG. 1). Then, the ratio of total amount of drug content in the liposome fractions to total drug fractions was calculated. In this example, a drug entrapment of 41% was obtained. The liposome particle size distribution was determined through dynamic light scattering on a NICOMP Submicron Particle Sizer Model 370. The encapsulation efficiency was examined by a UV-visible spectrophotometer as the OD at 270 nm after 1:9 methanol dissolution of fractions collected from the Sepharose column. A reference measurement was also taken of the OD at 450 nm without methanol dissolution. Then, the ratio of total amount of drug content in the liposome fractions to total drug fractions was calculated. […] The liposome particle size distribution was determined through dynamic light scattering on a NICOMP Submicron Particle Sizer Model 370. […] Then, the ratio of total amount of drug content in the liposome fractions to total drug fractions was calculated. […] Each fraction was analyzed by UV-vis spectrophotometry. […]

Data set [2] can be described thus: Pharmacokinetics in plasma after i.v. administration (boron by ICP-OES). The format is in vivo. The note with it: ICR mice, i.v. 1.0 mg/kg, two-compartment model, mean ± SD (n = 3). The procedure:
The Pharmacokinetics of L-BTZ was studied in ICR mice (Charles River Lab, Wilmington, Mass.). The PK profile of free BTZ was also determined. Mice were given intravenous injections of free BTZ or L-BTZ at 1.0 mg/kg body weight via tail vein. At selected time intervals, a minimum of 100 μL […] was collected from each mouse using heparin-containing tubes. Plasma was then isolated by centrifugation at 3000× g for 5 min. The drug concentration in plasma was determined by measuring Boron concentration through an inductively coupled plasma-optical emission spectrometer (ICP-OES). The Boron extraction and sample preparation has been described previously. The pharmacokinetic parameters of free BTZ and L-BTZ were calculated using WinNonlin software and a two-compartment model and are shown in Table 1.

The conditions of data set [3]: cited from earlier work.

Read-outs that look alike come from different tables or passages of the source.

In the case of `CC(C)CCC[C@@H](C)C1CCC2C3CC=C4C[C@@H](OC(=O)N(C)CC(O)[C@H]5OB([C@H](CC(C)C)NC(=O)[C@H](Cc6ccccc6)NC(=O)c6cnccn6)O[C@@H]5C(O)CO)CC[C@]4(C)C3CC[C@@]21C` (stereo partly drawn) [BTZ-MEGA-CHOL], the median survival with MV4-11 AML cells (tail vein, Trial I and II combined, p <0.0001 vs empty liposomes (28 days)) came to 39 days. In the data set on MV4-11 AML cells (Trial I p 0.0007, Trial II p 0.0019), the survival of mice result was “significant increase in survival”. Further, the “drug entrapment (encapsulation efficiency)” value in data set [1] is given as 80.11%.

In data set [2], `CC(C)C[C@H](NC(=O)[C@H](Cc1ccccc1)NC(=O)c1cnccn1)B(O)O` [Free BTZ, Bortezomib] returned a T1/2α of 6 ± 1.2 min and a T1/2β of 18.26 ± 13.33 h. In data set [2] (mouse, iv), this molecule showed an AUC of 2870 ± 1340 ng·h/mL and a clearance of 5.8 mL/min/kg. Moreover, the maximum tolerated dose in data set [3] (intravenous bolus on days 1, 4, 8, and 11 of a 3-week cycle) is 1.56 mg/m^2. Also, the maximum tolerated dose in data set [3] (patients with solid tumors, intravenously once or twice weekly) is 1.3 mg/m^2.

By AUC is commonly meant concentration integrated over time. One may read the clearance as a measure of how efficiently the substance is removed, as volume per time. Read a high clearance as a high capacity for elimination.

The values are drawn from patent US10167311B2, “Boronic acid esters and pharmaceutical formulations thereof” (OHIO STATE INNOVATION FOUNDATION, priority 2014, dated 2019).
